Earlier results in patent US20150216993A1 (priority 2012, published 2015).

System: organophosphate poisoning
Settings: in vivo

With `O/N=C/c1cc[n+](COC[n+]2ccc(/C=N/O)cc2)cc1` [obidoxime, obidoxime chloride] as the compound, how does the “window of time in which the therapeutic is effective” value read?
The value was “about 10 minutes”.
